In US12590099B2, “Inhibitors of histone deacetylase useful for the treatment or prevention of HIV infection” (Merck Sharp & Dohme LLC, priority 2018, dated 2026):
Read-outs that look alike come from different tables or passages of the source.

Tests used:
Recombinant human HDAC8 = biological target: T1, Recombinant human HDAC8 (Homo sapiens, UniProt Q9BY41); experiment: Human HDAC enzyme inhibitor Fluor-de-Lys assay, HDAC8; type: biochemical
T1 construct: purchased Enzo Life Sciences BML-SE145-0100
T1 sequence (Q9BY41 1-377): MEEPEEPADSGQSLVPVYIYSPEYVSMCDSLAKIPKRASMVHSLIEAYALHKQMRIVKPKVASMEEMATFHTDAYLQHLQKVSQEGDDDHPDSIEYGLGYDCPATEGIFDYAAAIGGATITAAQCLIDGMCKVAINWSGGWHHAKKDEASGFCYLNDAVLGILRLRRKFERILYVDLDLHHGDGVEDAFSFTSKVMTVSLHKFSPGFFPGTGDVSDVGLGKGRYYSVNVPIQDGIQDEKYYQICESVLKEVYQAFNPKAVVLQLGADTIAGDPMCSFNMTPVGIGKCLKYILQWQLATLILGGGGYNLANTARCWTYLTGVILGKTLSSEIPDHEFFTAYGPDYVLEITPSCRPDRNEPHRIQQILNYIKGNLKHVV
Description: (§1) Human HDAC Enzyme Inhibitor Fluor-De-Lys Assay
(§2) Recombinant human HDAC8 (BML-SE145-0100) and HDAC10 (BML-SE559-0050) enzymes, HDAC substrates BML-KI104 and BML-KI178, and HDAC developer solutions BML-KI105 and BML-KI176 were purchased from Enzo Life Sciences. […] HDAC inhibitor suberoylanilide hydroxamic acid (SAHA) was obtained from Indofine and trichostatin A (TSA) was obtained from Sigma-Aldrich.
(§3) The histone deacetylase activities of HDAC1, HDAC2, HDAC3, HDAC6, and HDAC8 were measured in modified FLUOR DE LYS assays in 384-well format. In this assay, HDAC enzymes are initially incubated with an ε-acetyl (or -trifluoroacetyl)-L-lysine-containing substrate with a C-terminal amide having aminomethylcoumarin as the amine component. HDACs cleave the ε-acetyl group, rendering the resulting product susceptible to AMC cleavage by trypsin. The released AMC is then detected by its fluorescence.
(§4) The HDAC3/SMRT assay employed buffer B, consisting of 20 mM HEPES, pH 8.0, 1 mM MgCl2, 50 mM NaCl, 2.7 mM KCl, 0.05% BSA, 0.005% Tween 20, and 10 μM IP4. […] The HDAC8 assay employed buffer D, consisting of 20 mM HEPES, pH 8.0, 1 mM MgCl2, 100 mM NaCl, 20 mM KCl, 0.10% n-octyl-β-D-glucoside (Anatrace) and 0.05% BSA. All steps were performed at room temperature (23° C.). The assay was performed by pre-incubating serial dilutions of test compounds with the target HDAC prior to initiation with substrate. Each compound was titrated in a 10-point dose response, using a 1:3 fold dilution scheme, with 0.15 ul of solution added by ECH0555 to the plate, followed by the addition of 20 μl of the appropriate HDAC isoform diluted in appropriate assay buffer. […] Final conditions used for each assay were: 1. HDAC 1, 0.3 nM total enzyme, 20 μM substrate BML-KI104; 2. […] HDAC 3/SMRT, 0.3 nM total enzyme, 20 μM substrate BML-KI104; 4. […] The reactions were stopped and developed by addition of 30 ul of HDAC developer solution containing a saturating level of HDAC inhibitor as follows: 1.

KARN cells (Jurkat 2C4) = experiment: cells; type: cell-based
Description: KARN cells (Jurkat 2C4) were licensed from the laboratory of Dr. John Karn, Case Western Reserve University, School of Medicine. […] An atmosphere of 5% CO2 and 90% humidity was used for all culture work.
Day 1: After the 3-4 day growth period, the cells were transferred from the T175 flask to a 50 ml conical tube and gently pelleted at 1000 rpm for 5 minutes. […] These flasks were returned to the incubator.
Day 2: Cell Preparation: The next day, the cells were transferred from each T175 flask to an individual 50 ml conical tube and gently pelleted at 1000 rpm for 5 minutes. The cells were gently resuspended in assay media (30 ml) and pelleted again. […] The cells were counted using the ViCell (Beckman Coulter) and diluted as necessary. […] The plates were covered and returned to the incubator prior to compound addition.
The reference compounds, DMSO and SAHA were then added to the compound plate. […] The final high concentration for SAHA and the test compounds in the assays was 40 μM. The final DMSO concentration in all wells was 0.4%. The minimal induction reference compound used was DMSO and the maximal induction reference compound used was SAHA (2 μM final concentration in the assay).
Day 3: The luciferase detection reagent was prepared by transferring the contents of one bottle of Steady-Glo buffer to one bottle of Steady-Glo aubstrate (Steady-Glo Luciferase Assay System, Promega, catalog number E2520), followed by gently mixing until the substrate was thoroughly dissolved and the solution was equilibrated to room temperature. […] The Steady-Glo Reagent was added to the plates (30 μl/well), which were then covered with a black lid and incubated for 10 minutes at room temperature. The plates were then read for luminescence on an Envision (Perkin Elmer) using the ultrasensitive mode (US LUM), […] and 384-well aperture. Luminescence counts in the DMSO reference wells were considered as 0% induction, while those in the 2 μM SAHA reference wells were considered as 100% induction. Dose response curves were plotted as test compound concentration (X-axis) vs. percent activation (Y-axis) using a 4-parameter fit based on the Levenberg-Marquardt algorithm.

HDAC6 = biological target: T2, HDAC6 (Homo sapiens, UniProt Q9UBN7); experiment: Human HDAC enzyme inhibitor Fluor-de-Lys assay, HDAC6; type: biochemical
T2 sequence (Q9UBN7 1-1215): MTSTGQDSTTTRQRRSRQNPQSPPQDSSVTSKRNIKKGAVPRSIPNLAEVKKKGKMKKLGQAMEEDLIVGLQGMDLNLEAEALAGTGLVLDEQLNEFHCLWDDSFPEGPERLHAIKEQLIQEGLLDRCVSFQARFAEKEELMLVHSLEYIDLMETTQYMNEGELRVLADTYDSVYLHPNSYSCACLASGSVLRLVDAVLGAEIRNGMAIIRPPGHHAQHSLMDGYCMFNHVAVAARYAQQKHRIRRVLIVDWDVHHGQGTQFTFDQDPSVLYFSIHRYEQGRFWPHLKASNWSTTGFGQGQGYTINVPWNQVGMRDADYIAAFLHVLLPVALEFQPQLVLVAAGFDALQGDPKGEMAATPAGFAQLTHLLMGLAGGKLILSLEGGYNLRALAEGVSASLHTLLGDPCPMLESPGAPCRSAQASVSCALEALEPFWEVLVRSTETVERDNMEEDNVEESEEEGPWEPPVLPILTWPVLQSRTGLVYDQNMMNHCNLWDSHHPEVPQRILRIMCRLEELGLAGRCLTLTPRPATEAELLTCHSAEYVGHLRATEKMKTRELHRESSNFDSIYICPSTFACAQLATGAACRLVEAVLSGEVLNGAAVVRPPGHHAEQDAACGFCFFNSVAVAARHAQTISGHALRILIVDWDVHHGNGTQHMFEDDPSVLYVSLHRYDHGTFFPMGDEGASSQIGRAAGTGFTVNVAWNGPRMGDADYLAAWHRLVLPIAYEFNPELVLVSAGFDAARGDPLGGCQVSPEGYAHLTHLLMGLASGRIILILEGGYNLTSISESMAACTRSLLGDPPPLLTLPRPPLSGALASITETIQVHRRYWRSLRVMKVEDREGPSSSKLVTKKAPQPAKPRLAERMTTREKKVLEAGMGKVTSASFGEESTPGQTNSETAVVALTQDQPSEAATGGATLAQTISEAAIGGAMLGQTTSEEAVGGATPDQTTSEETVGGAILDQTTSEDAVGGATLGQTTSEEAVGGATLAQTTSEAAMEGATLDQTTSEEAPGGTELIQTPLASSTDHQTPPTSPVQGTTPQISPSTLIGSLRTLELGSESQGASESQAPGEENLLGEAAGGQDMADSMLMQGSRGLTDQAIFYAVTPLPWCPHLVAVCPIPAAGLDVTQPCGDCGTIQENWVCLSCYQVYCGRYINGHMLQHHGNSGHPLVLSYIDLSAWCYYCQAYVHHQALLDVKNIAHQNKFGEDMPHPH
Description: as §1, §2, §3, §4

[1] = recombinant human HDAC8, Fluor-de-Lys assay
[2] = Homo sapiens, Jurkat, read-out: Karn EC50 (nM) 0.1% NHS, 0.1% normal human serum, luciferase induction, 100% = 2 μM SAHA
[3] = Homo sapiens, Jurkat, read-out: Karn EC50 (nM) 5% NHS, 5% normal human serum, luciferase induction, 100% = 2 μM SAHA
[4] = Homo sapiens, Jurkat, read-out: Karn EC50 (nM) 0.1% NHS, 0.1% normal human serum
[5] = Homo sapiens, Jurkat, read-out: Karn EC50 (nM) 5% NHS, 5% normal human serum

SMILES | IC50 (Recombinant human HDAC8; [1]) [µM] | EC50 (KARN cells (Jurkat 2C4); [2]) [nM] | EC50 (KARN cells (Jurkat 2C4); [3]) [nM] | IC50 (HDAC6; HDAC6, Fluor-de-Lys assay) [nM] | also measured
CCC(=O)CCCCC[C@H](NC(=O)[C@H]1CC12CCN(C(N)=O)CC2)c1ncc(-c2cc3ccccc3nc2OC)[nH]1 (single isomer, unassigned) [Compound 319] | 2.27 | 1560 | 9850 | 1170 | –
CCC(=O)CCCCC[C@H](NC(=O)[C@H]1CC12CCN(CC(C)C)CC2)c1ncc(-c2cc3ccccc3nc2OC)[nH]1 [Compound 335] | 3.28 | 31 | 63 | 329 | –
CCC(=O)CCCCC[C@H](NC(=O)[C@@H]1CC12CCN(CC)CC2)c1ncc(-c2cc3ccccc3[nH]c2=O)[nH]1 [Compound 292] | > 4.5 | 992 | 1380 | > 1500 | –
CCC(=O)CCCCC[C@H](NC(=O)C1CC2(C1)CN(C)C2)c1ncc(-c2cc3ccccc3nc2OC)[nH]1 [Compound 311] | 2.66 | 131 | 841 | 385 | –
CCC(=O)CCCCC[C@H](NC(=O)[C@H]1CC12CCN(CC)CC2)c1ncc(-c2ccc3c(=O)n(CC)ccc3c2)[nH]1 [Compound 92] | – | – | – | – | IC50 (Recombinant human HDAC8): 6.26 µM; EC50 (KARN cells (Jurkat 2C4); [4]): 52 nM; EC50 (KARN cells (Jurkat 2C4); [5]): 56 nM; IC50 (HDAC6): 2980 nM
CCC(=O)CCCCC[C@H](NC(=O)[C@@H]1C[C@@]12CCN(C)C2)c1ncc(-c2cc3ccccc3nc2OC)[nH]1 [Compound 330] | 13.7 | 309 | 1150 | 632 | –
CCC(=O)CCCCC[C@H](NC(=O)C1CCC2(CC1)CN(C)C2)c1ncc(-c2cc3ccccc3nc2OC)[nH]1 [Compound 315] | 1.95 | 86 | 688 | 459 | –
CCC(=O)CCCCC[C@H](NC(=O)[C@@H]1CC12CN(C)C2)c1ncc(-c2cc3ccccc3nc2OC)[nH]1 [Compound 322] | 2.49 | 74 | 287 | 219 | –
CCC(=O)CCCCC[C@H](NC(=O)[C@H]1CC12CCN(CC)CC2)c1ncc(-c2ccc3ncccc3c2)[nH]1 [Compound 346] | 3.16 | 46 | 57 | 545 | –
CCC(=O)CCCCC[C@H](NC(=O)[C@H]1CC12CCCN(C)C2)c1ncc(-c2cc3ccccc3nc2OC)[nH]1 (some centres unmarked) [Compound 287] | 2.78 | – | – | 351 | EC50 (KARN cells (Jurkat 2C4); read-out: Karn EC50 (nM) 0.1% NHS, 0.1% normal human serum, luciferase induction, 100% = 2 μM SAHA): 81 nM; EC50 (KARN cells (Jurkat 2C4); read-out: Karn EC50 (nM) 5% NHS, 5% normal human serum, luciferase induction, 100% = 2 μM SAHA): 325 nM
CCC(=O)CCCCC[C@H](NC(=O)[C@H]1CC12CCN(CC1CC1)CC2)c1ncc(-c2cc3ccccc3nc2OC)[nH]1 [Compound 336] | 3.13 | 16 | 30 | 189 | –
CCC(=O)CCCCC[C@H](NC(=O)[C@H]1CC12CCN(C)CC2)c1ncc(-c2cc3ccccc3nc2OC)[nH]1 (single isomer, unassigned) [Compound 321] | 3.38 | 27 | 83 | 158 | –
CCC(=O)CCCCC[C@H](NC(=O)C1CC2(C1)CN(CC)C2)c1ncc(-c2cc3ccccc3nc2OC)[nH]1 [Compound 279] | 5.12 | 160 | 860 | 362 | –
CCC(=O)CCCCC[C@H](NC(=O)C1CC12CCC(N(C)C)CC2)c1ncc(-c2cc3ccccc3nc2OC)[nH]1 (single isomer, unassigned) [Compound 127] | – | – | – | – | IC50 (Recombinant human HDAC8): 0.076 µM; EC50 (KARN cells (Jurkat 2C4); read-out: Karn EC50 (nM) 0.1% NHS, 0.1% normal human serum): 37 nM; EC50 (KARN cells (Jurkat 2C4); read-out: Karn EC50 (nM) 5% NHS, 5% normal human serum): 60 nM; IC50 (HDAC6): 364 nM
CCC(=O)CCCCC[C@H](NC(=O)[C@H]1CC12CCN(CC)CC2)c1ncc(-c2cc3nn(C)cc3cc2OC)[nH]1 [Compound 190] | – | – | – | – | IC50 (Recombinant human HDAC8): 3.11 µM; EC50 (KARN cells (Jurkat 2C4); [4]): 967 nM; EC50 (KARN cells (Jurkat 2C4); [5]): 1450 nM; IC50 (HDAC6): 562 nM
CCC(=O)CCCCC[C@H](NC(=O)[C@H]1CC12CCCN(C)C2)c1ncc(-c2cc3ccccc3nc2OC)[nH]1 (some centres unmarked) [Compound 286] | 3.87 | 116 | 406 | 342 | –
CCC(=O)CCCCC[C@H](NC(=O)[C@@H]1CC12CCCN(C)C2)c1ncc(-c2cc3ccccc3nc2OC)[nH]1 (some centres unmarked) [Compound 285] | 9.19 | 257 | 1010 | 260 | –
